Test results from patent publication US11479587B2, “Cationic intrinsically disordered antimicrobial peptides” (priority 2016, dated 2022).
Converted amounts (≈) assume the structure as drawn. “And” between values parts separate entries of the source, which are not always exact repeats. Equal entries are not always repeated. Residues, ends and D or L forms follow the SMILES beside them.

Assays:
[1] = system: methicillin-resistant S. aureus strain (ATCC 43300); assay type: cell-based, Staphylococcus aureus; conditions: ATCC 43300, 18 h
[2] = system: multidrug-resistant K. pneumoniae ATCC 700603; assay type: cell-based, Klebsiella pneumoniae
Protocol: The Gram-negative opportunistic pathogen K. pneumoniae is responsible for a spectrum of community-acquired and nosocomial infections and typically infects patients with indwelling medical devices, on which this microorganism is able to grow as a biofilm.
A sample of each culture was then diluted 40-fold in fresh broth and incubated at 37° C. for 1.5-3 h. […] All the plates were covered and incubated at 37° C. for 18 h.
(§1) Inhibition of bacterial growth was determined using resazurin as a marker for cell viability. Resazurin was added to each well, at 0.001% final concentration, and plates incubated at 37° C. for 2 h. Fluorescence intensity was measured, using F (top read), ex 560/10 nm, em 590/10 nm, using a Tecan M1000 Pro monochromator plate reader.

[3] = Cytotoxicity (resazurin) assay
Procedure, shortened: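 CC50 values were derived by fitting concentration-dependent percentage cytotoxicity to a dose–response function. The read-out was resazurin fluorescence (ex 560, em 590 nm; 100 μM, 3 h) after 20 h compound treatment of HEK293 cells at 37 °C in DMEM with 10% FBS.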

Hemolysis assay = assay type: cell-based; conditions: for HC50 at 1 h: human, washed erythrocytes from EDTA-blood, pH 7.4
Procedure, shortened: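 Washed EDTA-blood erythrocytes in 5% PBS, pH 7.4, were rotated 1 h at 37° C with peptides at 0, 3, 10, 30, 60 μm. Hemoglobin release read at 540 nm as % of 0.1% Triton X-100 hemolysis; CC50 from dose-response curve of triplicates.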

A. baumannii ATCC 19606 = assay type: cell-based, Acinetobacter baumannii; conditions: ATCC 19606, 2 h
Protocol: as §1

E. coli ATCC 25922 = assay type: cell-based, Escherichia coli; conditions: ATCC 25922, 2 h
Protocol: as §1

P. aeruginosa ATCC 27853 = assay type: cell-based, Pseudomonas aeruginosa; conditions: ATCC 27853, 2 h
Protocol: as §1

C. albicans ATCC 928 = conditions: for MIC, C. albicans ATCC 90028: ATCC 928; for MIC: ATCC 928, 18 h, pH 7.4
P. aeruginosa ATCC 10145 = assay: CFU-assay, P. aeruginosa-cidal activity; assay type: cell-based, Pseudomonas aeruginosa
S. aureus ATCC 6538 = assay: CFU-assay, S. aureus-cidal activity; assay type: cell-based, Staphylococcus aureus
Procedure, shortened: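 Bactericidal CFU-assay in nutrient-deficient 10 mM sodium phosphate buffer pH 5.5 with 0.25% glucose, counting surviving colonies across twofold peptide dilutions from 300 μg/ml to 19 ng/ml. Output is minimal bactericidal concentration (e.g. MBC90, MBC100); some peptides also tested at pH 7.0.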

[4] = system: Streptococcus pneumoniae ATCC 33400; assay: CFU-assay, antimicrobial activity spectrum; assay type: cell-based; conditions: pH 7.3, 0.25% glucose
[5] = system: Streptococcus pyogenes ATCC 12344; assay: CFU-assay, antimicrobial activity spectrum; assay type: cell-based
[6] = system: Escherichia coli ATCC11775; assay: CFU-assay, antimicrobial activity spectrum; assay type: cell-based
[7] = system: Burkholderia cepacia ATCC 25416; assay: CFU-assay, Burkholderia cepacia-cidal activity; assay type: cell-based
[8] = system: Staphylococcus epidermidis ATCC 14990; assay: CFU-assay, antimicrobial activity spectrum; assay type: cell-based; conditions: pH 5.5, 0.25% glucose
[9] = system: Klebsiella pneumoniae ATCC 13883; assay: CFU-assay, Klebsiella pneumoniae-cidal activity; assay type: cell-based
[10] = system: Salmonella typhimurium ATCC 13311; assay: CFU-assay, antimicrobial activity spectrum; assay type: cell-based
[11] = system: E. coli ribosomal proteins; assay: Immunodotblot binding to HPLC-separated ribosomal proteins; conditions: 10 μg/ml, 4° C. overnight, dot blot
Excerpt: The question whether CIDAMP-dependent morphological changes in bacteria are direct or indirect was addressed by testing the hypothesis that CIDAMPs directly bind to ribosomes and ribosomal proteins. For this purpose, ribosomes of E. coli were separated and partially purified by SulfoLink®-coupling resin-chromatography (Maguire et al., 2008, RNA, 14, 188-195) followed by reversed phase high performance liquid chromatography (HPLC) using an Aeris 3.6 μm C18 widepore RP-HPLC column (Phenomenex) and an increasing gradient of acetonitrile (ACN, max.: 80% v/v) in aqueous 0.1% trifluoroacetic acid.
Aliquots of each HPLC fraction were lyophilized, the residues dissolved in 5 μl water each and then applied to a nitrocellulose membrane. After blocking with 5% bovine serum albumin in PBS and washing with PBS, biotinylated rhHRNR2591-2694, a 103 amino acid fragment of hornerin, (10 μg/ml) was added and incubated at 4° C. overnight. After 4-times washing, Strep-Tactin® (1:200; iba lifescience) in PBS was added, incubated for 1 h and then, after 6 times washing with PBS, substrate was added and the blots developed.

[12] = standard conditions at pH 7.4, activity at concentration <32 pg/ml

CCCCCCCCCCCCCCCC(=O)NCC(=O)N[C@H](CCCNC(=N)N)C(=O)N[C@H](CCCNC(=N)N)C(=O)NCC(=O)NCC(=O)N[C@H](CCCNC(=N)N)C(=O)NCC(=O)NCC(=O)N[C@H](CCCNC(=N)N)C(=O)NCC(=O)N[C@H](CCCNC(=N)N)C(=O)NCC(=O)N[C@H](CCCNC(=N)N)C(=O)O [D-Pal-GR13] (HELM PEPTIDE1{[CCCCCCCCCCCCCCCC(=O)[*:2]].G.[dR].[dR].G.G.[dR].G.G.[dR].G.[dR].G.[dR]}$$$$V2.0)
MIC, S. aureus ATCC 43300 [1]: ≥2 µg/mL
MIC, K. pneumoniae ATCC 700603 [2]: ≥32 µg/mL
CC50 [3]: > 32 µg/mL and > 20.1 µM
HC50 (Hemolysis assay): 65 µg/mL
HC50 at 1 h (Hemolysis assay): 24.5 µM
MIC, A. baumannii ATCC 19606 (A. baumannii ATCC 19606): ≥8 µg/mL
MIC, E. coli ATCC 25922 (E. coli ATCC 25922): ≥8 µg/mL
MIC, P. aeruginosa ATCC 27853 (P. aeruginosa ATCC 27853): ≥16 µg/mL
MIC, C. albicans ATCC 90028 (C. albicans ATCC 928): ≥8 µg/mL
MIC, C. neoformans ATCC 208821 (C. neoformans): ≥2 µg/mL

CCCCCCCCCCCCCCCC(=O)NCC(=O)N[C@@H](CCCNC(=N)N)C(=O)N[C@@H](CCCNC(=N)N)C(=O)NCC(=O)NCC(=O)N[C@@H](CCCNC(=N)N)C(=O)NCC(=O)NCC(=O)N[C@@H](CCCNC(=N)N)C(=O)NCC(=O)N[C@@H](CCCNC(=N)N)C(=O)NCC(=O)N[C@@H](CCCNC(=N)N)C(=O)O [Pal-GR13] (HELM PEPTIDE1{[CCCCCCCCCCCCCCCC(=O)[*:2]].G.R.R.G.G.R.G.G.R.G.R.G.R}$$$$V2.0)
MIC, S. aureus ATCC 43300 [1]: ≥0.25 µg/mL
MIC, K. pneumoniae ATCC 700603 [2]: ≥16 µg/mL
CC50 [3]: > 32 µg/mL and > 20.1 µM
HC50 (Hemolysis assay): 100 µg/mL
HC50 at 1 h (Hemolysis assay): 62 µM
MIC, A. baumannii ATCC 19606 (A. baumannii ATCC 19606): ≥2 µg/mL
MIC, E. coli ATCC 25922 (E. coli ATCC 25922): ≥4 µg/mL
MIC, P. aeruginosa ATCC 27853 (P. aeruginosa ATCC 27853): ≥8 µg/mL
MIC, C. albicans ATCC 90028 (C. albicans ATCC 928): ≥4 µg/mL
MIC (C. albicans ATCC 928): 1 to 32 µg/mL
MIC, C. neoformans ATCC 208821 (C. neoformans): ≥0.25 µg/mL

CCCCCCCCCCCCCCCC(=O)N[C@@H](CO)C(=O)N[C@@H](Cc1c[nH]cn1)C(=O)N[C@@H](Cc1c[nH]cn1)C(=O)N[C@@H](CCCNC(=N)N)C(=O)N[C@@H](CS)C(=O)N[C@@H](CS)C(=O)N[C@@H](CCCNC(=N)N)C(=O)N[C@@H](CO)C(=O)N[C@@H](Cc1c[nH]cn1)C(=O)N[C@@H](CCCNC(=N)N)C(=O)N[C@@H](CS)C(=O)N[C@@H](CCCNC(=N)N)C(=O)N[C@@H](CCCNC(=N)N)C(=O)O [Pal-LCE3B56-68] (HELM PEPTIDE1{[CCCCCCCCCCCCCCCC(=O)[*:2]].S.H.H.R.C.C.R.S.H.R.C.R.R}$$$$V2.0)
P. aeruginosa MBC90 (P. aeruginosa ATCC 10145; pH 5.5): 0.088 µM
P. aeruginosa MBC100 (P. aeruginosa ATCC 10145; pH 5.5): 0.176 µM
MBC90 (P. aeruginosa ATCC 10145; pH 5.5, 0.25% glucose): 0.075 µg/mL (≈ 0.0388 µM)
MBC100 (P. aeruginosa ATCC 10145; pH 5.5, 0.25% glucose): 0.3 µg/mL (≈ 0.155 µM)
S. aureus MBC90 (S. aureus ATCC 6538; pH 5.5): 0.011 µM
S. aureus MBC100 (S. aureus ATCC 6538; pH 5.5): 0.078 µM
MBC90 (S. aureus ATCC 6538; pH 5.5, 0.25% glucose): <0.019 µg/mL
MBC100 (S. aureus ATCC 6538; pH 5.5, 0.25% glucose): 0.15 µg/mL (≈ 0.0776 µM)
MBC90 [4]: 0.59 µg/mL (≈ 0.305 µM)
MBC100 [4]: 2.35 µg/mL (≈ 1.22 µM)
MBC90 ([5]; pH 6.0, 0.25% glucose): 0.15 µg/mL (≈ 0.0776 µM)
MBC100 ([5]; pH 6.0, 0.25% glucose): 0.59 µg/mL (≈ 0.305 µM)
MBC90 ([5]; pH 7.3, 0.25% glucose): 0.15 µg/mL (≈ 0.0776 µM)
MBC100 ([5]; pH 7.3, 0.25% glucose): 0.3 µg/mL (≈ 0.155 µM)
MBC90 ([6]; pH 5.5, 0.25% glucose): 0.3 µg/mL (≈ 0.155 µM)
MBC90 ([6]; pH 7.3, 0.25% glucose): 0.59 µg/mL (≈ 0.305 µM)
MBC100 ([6]; pH 7.3, 0.25% glucose): 1.18 µg/mL (≈ 0.611 µM)
MBC90 ([7]; pH 5.5, 0.25% glucose): >300 µg/mL
MBC100 ([7]; pH 5.5, 0.25% glucose): >300 µg/mL
MB100 ([7]; pH 7.3): 4.9 µM
MBC90 ([7]; pH 7.3): 2.4 µM
MBC90 ([7]; pH 7.3, 0.25% glucose): 4.7 µg/mL
MBC100 ([7]; pH 7.3, 0.25% glucose): 9.38 µg/mL (≈ 4.85 µM)
MBC100 ([7]; pH 7.3, 0.25% glucose, listed as palmitoyl-LCE3B56-68): 9.375 µg/mL (≈ 4.85 µM)
MBC90 [8]: 0.3 µg/mL (≈ 0.155 µM)
MBC100 [8]: 0.3 µg/mL (≈ 0.155 µM)
MBC90 ([9]; pH 5.5): 0.052 µM
MBC100 ([9]; pH 5.5): 4.9 µM
MBC90 ([9]; pH 5.5, 0.25% glucose): 0.15 µg/mL
MBC100 ([9]; pH 5.5, 0.25% glucose): 9.375 µg/mL
MBC90 ([9]; pH 7.3, 0.25% glucose): 2.35 µg/mL
MBC100 ([9]; pH 7.3, 0.25% glucose): 4.7 µg/mL
MBC90 ([10]; pH 5.5): 0.02 µM
MBC100 ([10]; pH 5.5): 0.155 µM
MBC90 ([10]; pH 5.5, 0.25% glucose): 0.038 µg/mL
MBC100 ([10]; pH 5.5, 0.25% glucose): 0.3 µg/mL
MBC90 ([10]; pH 7.3, 0.25% glucose): 1.18 µg/mL
MBC100 ([10]; pH 7.3, 0.25% glucose): 2.35 µg/mL
MIC, S. aureus ATCC 43300 [1]: ≥16 µg/mL
CC50 [3]: > 32 µg/mL and > 16.6 µM
CC50 (Hemolysis assay): > 100 µg/mL
HC50 at 1 h (Hemolysis assay): > 78 µM
MIC, C. albicans ATCC 90028 (C. albicans ATCC 928): ≥1 µg/mL
MIC (C. albicans ATCC 928): 1 to 32 µg/mL
Antifungal activity, C. albcans ATCC90028 (C. albicans ATCC 928; [12]): A (A-active)
MIC, C. neoformans ATCC 208821 (C. neoformans): ≥0.25 µg/mL
Antifungal activity, C. neoformans ATCC 208821 (C. neoformans; [12]): A (A-active)

B1: biotinylated rhHRNR2591-2694: biotinylated rhHRNR2591-2694, a 103 amino acid fragment of hornerin (protein)
chain: SQHGSGSGHSSGYGQHGSRSGQSSRGERHGSSSGSSSHYGQHGSGSRQSSGHGRQGSGSGQSPSRGRHGSGLGHSSSHGQHGSGSGRSSSRGPYESRLGHSSVF
modifications: biotinylated (position not given)
notes: biotinylated rhHRNR2591-2694, a 103 amino acid fragment of hornerin
binding to ribosomal proteins (in words) [11]: specific binding
